In PubChem BioAssay AID330 (DTP/NCI, 2004):
Several values for one entry are separate records, joined by “and”; a condition that tells them apart may be missing. Equal entries are not always repeated. Inconclusive results and toxic doses are left out. Rule for the calls: active = survival T/C of 150% or more; inactive = T/C below 125% in these data.

System: P388 leukemia ip, CD2F1 mice, survival T/C
Assay: NCI In Vivo Anticancer Drug Screen. Data for tumor model P388 Leukemia (intraperitoneal) in CD2F1 (CDF1) mice
Conditions: endpoint: median survival time, higher = longer survival
In short: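 Mice carrying the transplanted tumor received test compound or vehicle. Survival was recorded in each group, and the value is the treated-group measurement divided by that of the vehicle-treated control group.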

[1] = dose: 50.0 mg/kg/injection, schedule: Q01DX009 (ip), vehicle: Klucel (hydroxypropylcellulose) (HPC)
[2] = dose: 60.0 mg/kg/injection, schedule: Q01DX005 (ip), vehicle: saline with Tween-80
[3] = dose: 120.0 mg/kg/injection, schedule: Q01DX005 (ip), vehicle: saline with Tween-80
[4] = dose: 240.0 mg/kg/injection, schedule: Q01DX005 (ip), vehicle: saline with Tween-80
[5] = dose: 200.0 mg/kg/injection, schedule: Q04DX003 (ip), vehicle: saline
[6] = dose: 400.0 mg/kg/injection, schedule: Q04DX003 (ip), vehicle: saline
[7] = dose: 50.0 mg/kg/injection, schedule: Q01DX009 (ip), vehicle: saline with Tween-80
[8] = dose: 100.0 mg/kg/injection, schedule: Q01DX009 (ip), vehicle: saline with Tween-80
[9] = dose: 200.0 mg/kg/injection, schedule: Q01DX009 (ip), vehicle: saline with Tween-80
[10] = dose: 400.0 mg/kg/injection, schedule: Q01DX009 (ip), vehicle: saline with Tween-80
[11] = dose: 50.0 mg/kg/injection, schedule: Q01DX005 (ip), vehicle: Klucel (hydroxypropylcellulose) (HPC)
[12] = dose: 100.0 mg/kg/injection, schedule: Q01DX005 (ip), vehicle: Klucel (hydroxypropylcellulose) (HPC)
[13] = dose: 100.0 mg/kg/injection, schedule: Q01DX009 (ip), vehicle: Klucel (hydroxypropylcellulose) (HPC)
[14] = dose: 200.0 mg/kg/injection, schedule: Q01DX009 (ip), vehicle: Klucel (hydroxypropylcellulose) (HPC)

Measured: T/C

CCCCCCCCCCCCCCCCCCSC1=CC(=O)C(OC)=C(OC)C1=O
inactive: dose: 3.13 mg/kg/injection, schedule: Q01DX009 (ip), vehicle: Klucel (hydroxypropylcellulose) (HPC) 92 % of control | dose: 6.25 mg/kg/injection, schedule: Q01DX009 (ip), vehicle: Klucel (hydroxypropylcellulose) (HPC) 100 % of control | dose: 12.5 mg/kg/injection, schedule: Q01DX009 (ip), vehicle: Klucel (hydroxypropylcellulose) (HPC) 100 % of control | dose: 25.0 mg/kg/injection, schedule: Q01DX009 (ip), vehicle: Klucel (hydroxypropylcellulose) (HPC) 92 % of control | [1] 97 % of control

CN1C(c2ccccc2)=C(C#N)C(=O)CC(c2ccccc2)N1C (stereo not drawn)
inactive: dose: 5.0 mg/kg/injection, schedule: Q01DX005 (ip), vehicle: saline with Tween-80 102 % of control | dose: 10.0 mg/kg/injection, schedule: Q01DX005 (ip), vehicle: saline with Tween-80 105 % of control | dose: 20.0 mg/kg/injection, schedule: Q01DX005 (ip), vehicle: saline with Tween-80 102 % of control | dose: 40.0 mg/kg/injection, schedule: Q01DX005 (ip), vehicle: saline with Tween-80 102 % of control | dose: 50.0 mg/kg/injection, schedule: Q01DX005 (ip), vehicle: saline with Tween-80 101 % of control | [2] 120 % of control | dose: 100.0 mg/kg/injection, schedule: Q01DX005 (ip), vehicle: saline with Tween-80 93 % of control | [3] 103 % of control | dose: 200.0 mg/kg/injection, schedule: Q01DX005 (ip), vehicle: saline with Tween-80 104 % of control | [4] 94 % of control

O=C1[C@@H]2CCC[C@@H]2[C@H]2CCC[C@@H]12
inactive: dose: 100.0 mg/kg/injection, schedule: Q01DX001 (ip), vehicle: saline with Tween-80 95 % of control | dose: 200.0 mg/kg/injection, schedule: Q01DX001 (ip), vehicle: saline with Tween-80 102 % of control | dose: 400.0 mg/kg/injection, schedule: Q01DX001 (ip), vehicle: saline with Tween-80 89 % of control

N#CC1=C(Nc2ccccc2Cl)SC(c2ccccc2O)NC1=O (stereo not drawn)
inactive: [2] 103 % of control | [3] 102 % of control | [4] 96 % of control

CC(=N\O)/C(C)=N/O.CC(=N\O)/C(C)=N/O.[Cl][Rh][Cl]
inactive: [5] 100 % of control | [6] 95 % of control

CCN1/C(=C/C=C/C=C/c2sc3ccccc3[n+]2CC)Sc2ccccc21
inactive: dose: 0.05 mg/kg/injection, schedule: Q01DX009 (ip), vehicle: saline 123 % of control | dose: 0.06 mg/kg/injection, schedule: Q01DX009 (ip), vehicle: saline 124 % of control | dose: 0.08 mg/kg/injection, schedule: Q01DX009 (ip), vehicle: saline 107 % of control | dose: 0.12 mg/kg/injection, schedule: Q01DX009 (ip), vehicle: saline 117 % of control and 122 % of control | dose: 0.25 mg/kg/injection, schedule: Q01DX009 (ip), vehicle: saline 123 % of control | dose: 0.28 mg/kg/injection, schedule: Q01DX009 (ip), vehicle: saline 123 % of control

O=C1CCCN1
inactive: dose: 100.0 mg/kg/injection, schedule: Q04DX003 (ip), vehicle: saline 100 % of control | [5] 100 % of control | [6] 109 % of control

Cc1ccc(C)c(NC(=O)Oc2cc(C)c(Cl)c(C)c2)c1
inactive: [7] 101 % of control | [8] 105 % of control | [9] 98 % of control

CCOC1OCN(c2ccc(Cl)cc2)CC1(C)C (stereo not drawn)
inactive: dose: 25.0 mg/kg/injection, schedule: Q01DX009 (ip), vehicle: saline with Tween-80 111 % of control | [7] 106 % of control and 107 % of control and 93 % of control | [8] 100 % of control and 119 % of control | [9] 101 % of control and 116 % of control | [10] 100 % of control and 110 % of control

COc1ccc(/C=C2/N=C(c3ccccc3)OC2=O)cc1
inactive: [2] 93 % of control | [3] 93 % of control | [4] 87 % of control

O=c1[nH]c2cc([N+](=O)[O-])ccc2nc1/C=C(\O)c1ccc([N+](=O)[O-])cc1
inactive: dose: 60.0 mg/kg/injection, schedule: Q01DX005 (ip), vehicle: Klucel + Tween-80 87 % of control | dose: 120.0 mg/kg/injection, schedule: Q01DX005 (ip), vehicle: Klucel + Tween-80 86 % of control | dose: 240.0 mg/kg/injection, schedule: Q01DX005 (ip), vehicle: Klucel + Tween-80 90 % of control

[I][Hg][CH2]C1Cc2ccccc2O1 (stereo not drawn)
inactive: dose: 6.25 mg/kg/injection, schedule: Q01DX009 (ip), vehicle: saline 90 % of control | dose: 12.5 mg/kg/injection, schedule: Q01DX009 (ip), vehicle: saline 90 % of control | dose: 25.0 mg/kg/injection, schedule: Q01DX009 (ip), vehicle: saline 99 % of control | dose: 50.0 mg/kg/injection, schedule: Q01DX009 (ip), vehicle: saline 96 % of control

CN1c2c(C(=O)Nc3nccs3)nn(-c3ccccc3)c2-c2ccccc2S1(=O)=O
inactive: dose: 50.0 mg/kg/injection, schedule: Q01DX005 (ip), vehicle: saline 89 % of control | dose: 100.0 mg/kg/injection, schedule: Q01DX005 (ip), vehicle: saline 92 % of control | dose: 200.0 mg/kg/injection, schedule: Q01DX005 (ip), vehicle: saline 99 % of control

CCOC(=C\C(=O)NC)/C=C/c1ccc([N+](=O)[O-])cc1
inactive: dose: 6.25 mg/kg/injection, schedule: Q01DX005 (ip), vehicle: Klucel (hydroxypropylcellulose) (HPC) 117 % of control | dose: 12.5 mg/kg/injection, schedule: Q01DX005 (ip), vehicle: Klucel (hydroxypropylcellulose) (HPC) 91 % of control | dose: 25.0 mg/kg/injection, schedule: Q01DX005 (ip), vehicle: Klucel (hydroxypropylcellulose) (HPC) 91 % of control | [11] 86 % of control | [12] 88 % of control

CN1C(=O)c2ccccc2Cc2c(NCc3ccccc3)ncnc21
inactive: [7] 108 % of control | [8] 104 % of control | [9] 100 % of control

CCCCNC1=C(Cl)C(=O)c2ccccc2C1=O
inactive: [1] 92 % of control | [13] 92 % of control | [14] 91 % of control | dose: 400.0 mg/kg/injection, schedule: Q01DX009 (ip), vehicle: Klucel (hydroxypropylcellulose) (HPC) 105 % of control

Nc1nc(N)c2cc(S(=O)(=O)c3cccc(C(F)(F)F)c3)ccc2n1
inactive: [7] 113 % of control | [8] 117 % of control | [9] 106 % of control

CC(=O)Oc1cc2c(cc1C(Nc1ccccn1)c1ccc3c(c1)OCO3)OCO2 (stereo not drawn)
inactive: [2] 98 % of control | [3] 92 % of control | [4] 97 % of control

Clc1ccc(-c2csc3nc(-c4cccs4)nn23)cc1
inactive: dose: 30.0 mg/kg/injection, schedule: Q01DX005 (ip), vehicle: Klucel (hydroxypropylcellulose) (HPC) 97 % of control | dose: 60.0 mg/kg/injection, schedule: Q01DX005 (ip), vehicle: Klucel (hydroxypropylcellulose) (HPC) 95 % of control | dose: 120.0 mg/kg/injection, schedule: Q01DX005 (ip), vehicle: Klucel (hydroxypropylcellulose) (HPC) 95 % of control | dose: 240.0 mg/kg/injection, schedule: Q01DX005 (ip), vehicle: Klucel (hydroxypropylcellulose) (HPC) 93 % of control

COC(=O)c1cc(NS(=O)(=O)N(C)C)cc(C(=O)OC)c1
inactive: [1] 103 % of control | [13] 103 % of control | [14] 103 % of control

O=c1oc(-c2ccccc2Br)ns1
inactive: [13] 107 % of control | [14] 97 % of control

Cn1c(N)c(C(=O)Nc2ccccc2)c(=O)n(C)c1=O
inactive: dose: 100.0 mg/kg/injection, schedule: Q01DX001 (ip), vehicle: Klucel (hydroxypropylcellulose) (HPC) 87 % of control | dose: 200.0 mg/kg/injection, schedule: Q01DX001 (ip), vehicle: Klucel (hydroxypropylcellulose) (HPC) 88 % of control

O=C(O)C(Cc1ccccc1[N+](=O)[O-])N1C(=O)c2ccccc2C1=O (stereo not drawn)
inactive: [7] 112 % of control | [8] 92 % of control | [9] 94 % of control | [10] 100 % of control

COc1cc2c(cc1OC)C(Cc1cccs1)=NCC2
inactive: [11] 100 % of control | [12] 94 % of control
